In US7388003B2, “Δ15-D-Homosteroids with androgenic action” (Bayer Schering Pharma AG, priority 2003, dated 2008):

Assays:
Androgen Receptor [1] = target: T1, Androgen Receptor (Homo sapiens, UniProt P10275); test: Relative binding affinities (RBA) to the androgen receptor compared to testosterone and methyltrienolone; settings: relative binding affinity to the androgen receptor; R 1881 (Methyltrienolone) = 100
T1 sequence (P10275 1-920): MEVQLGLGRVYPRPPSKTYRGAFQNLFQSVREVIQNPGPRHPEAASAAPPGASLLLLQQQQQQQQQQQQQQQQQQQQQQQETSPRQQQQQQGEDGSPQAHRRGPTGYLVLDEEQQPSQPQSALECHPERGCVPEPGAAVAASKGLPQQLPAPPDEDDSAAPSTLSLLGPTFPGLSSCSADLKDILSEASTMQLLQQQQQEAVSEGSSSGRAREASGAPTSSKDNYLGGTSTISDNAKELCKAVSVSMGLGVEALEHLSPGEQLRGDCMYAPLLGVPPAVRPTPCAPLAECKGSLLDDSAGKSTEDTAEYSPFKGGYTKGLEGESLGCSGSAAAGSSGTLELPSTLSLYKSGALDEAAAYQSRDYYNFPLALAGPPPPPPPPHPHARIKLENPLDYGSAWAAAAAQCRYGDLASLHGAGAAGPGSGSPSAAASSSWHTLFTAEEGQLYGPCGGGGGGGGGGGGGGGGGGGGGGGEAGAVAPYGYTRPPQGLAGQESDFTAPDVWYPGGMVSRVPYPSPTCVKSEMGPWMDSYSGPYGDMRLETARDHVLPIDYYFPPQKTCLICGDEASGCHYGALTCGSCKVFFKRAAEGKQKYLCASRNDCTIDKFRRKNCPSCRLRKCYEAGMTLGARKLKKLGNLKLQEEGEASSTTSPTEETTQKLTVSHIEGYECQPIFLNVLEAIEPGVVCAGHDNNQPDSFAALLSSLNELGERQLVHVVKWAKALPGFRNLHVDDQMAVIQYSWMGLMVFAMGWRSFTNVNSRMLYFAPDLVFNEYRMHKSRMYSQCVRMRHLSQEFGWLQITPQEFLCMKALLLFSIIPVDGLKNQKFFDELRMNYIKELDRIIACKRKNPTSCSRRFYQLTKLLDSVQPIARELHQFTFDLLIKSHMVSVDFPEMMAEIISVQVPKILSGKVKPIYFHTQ

Androgen Receptor [2] = target: T1, Androgen Receptor; test: Receptor binding affinity to the androgen receptor (reference DHT=100%)

Work on CC12CCC(=O)C=C1CCC1C2CCC2(C)C(O)CC=CC12 [Example 2, 17aβ-Hydroxy-D-homoandrost-4,15-dien-3-one] yielded an RBA % (Androgen Receptor [1]) of 12%.

In the case of CC12CCC3C4CCC(=O)C=C4CCC3C1C=CCC2O [Example 1, 17aβ-Hydroxy-D-homoestra-4,15-dien-3-one], the RBA % (Androgen Receptor [1]) is reported as 25%.

C[C@]1(O)CC[C@H]2[C@@H]3CCC4=CC(=O)CCC4=C3C=C[C@@]21C [R 1881 (Methyltrienolone), Methyltrienolone] showed an RBA % (Androgen Receptor [1]) of 100%.

For CC1CC2=CC(=O)CCC2C2CCC3(C)C(O)C=CCC3C12 [17aβ-Hydroxy-7α-methyl-D-homoestra-4,16-dien-3-one], the “receptor binding affinity to the androgen receptor” value (Androgen Receptor [2]) was 2%.
